According to publication PMC12372887, “Mechanism and cellular actions of the potent AMPK inhibitor BAY-3827” (Science Advances, 2025):

System: mouse primary hepatocytes
Test: Immunoblot of AMPK signaling in primary hepatocytes
Format: cell-based
Method: Mouse hepatocytes were isolated by collagenase perfusion as previously described ([47]). Hepatocytes were seeded in medium Eagle-199 (MEM-199) (#41150, Thermo Fisher Scientific) containing penicillin G (100 U/ml), streptomycin (100 μg/ml), and 10% (v/v) fetal bovine serum (FBS). Hepatocytes were left for attachment (3 to 4 hours) and serum-starved overnight at 37°C with 5% CO2 in MEM-199 supplemented with penicillin G (100 U/ml), streptomycin (100 μg/ml), 10 nM insulin, and 100 nM dexamethasone. […] Cells were then harvested in 0.5 ml of phosphate-buffered saline (PBS), transferred into 1 ml of 40% KOH and 2 ml of methanol followed by 1-hour incubation at 80°C. Lipids were […] by acidifying the samples in 37% HCl and extracted with petroleum ether. Extracts were allowed to evaporate to dryness and then dissolved in Ultima Gold scintillation fluid for determination of [^14C]-acetate incorporation into lipids.
Following compound treatment, the cells were washed with room temperature PBS and lysed on ice with the addition of lysis buffer [50 mM tris-HCl (pH 7.5), 150 mM NaCl, 1 mM EDTA, 1 mM EGTA, 0.27 M sucrose, 1% w/v Triton X-100, 20 mM glycerol-2 phosphate disodium, 50 mM NaF, and 5 mM Na4P2O7.10 H2O] containing proteases and phosphatase inhibitors [0.5 mM phenylmethylsulfonyl fluoride (PMSF), 1 mM benzamidine HCl, leupeptin (1 μg/ml), pepstatin A (1 μg/ml), 1 μM microcystin-LR, 1 mM Na3VO4, and 1 mM DTT]. Lysates were centrifuged at 10,000g, 4°C for 10 min, and protein concentration of the supernatant was determined with the Pierce Bradford Protein Assay Kit (Thermo Fisher Scientific, #23200) and read on the Hidex Plate Reader (software version 0.5.64.0). Samples were prepared in Laemmli sample buffer (tris 200 mM, 8% SDS, EDTA 2 mM, and 40% glycerol) supplemented with 10% DTT and boiled for 5 min at 100°C. Ten micrograms of protein per sample was run on a Criterion tris-glycine polyacrylamide gel (Bio-Rad, #5678095) and transferred to a nitrocellulose membrane. For cell signaling experiments in HEK293 cells, the samples were run on a Criterion TGX stain-free precast gel (Bio-Rad, catalog no. 5678085) with transfer to a polyvinylidene difluoride membrane performed in Bio-Rad Criterion blotter (#1704071) using tris-glycine transfer buffer (Bio-Rad, #1610734) following the manufacturer’s instructions. […]

[1] = in the presence of MK-8722 (10 μM)

SMILES	levels of pACC1, pRaptor, or pAMPK (5 μM, with or without MK-8722)	concentration giving full inhibition of ACC1 phosphorylation [1] [µM]	concentration giving full inhibition of Raptor phosphorylation [1] [µM]	increased pThr172AMPK levels (with or without MK-8722 (10 μM))
CC1=C(C#N)C(c2ccc3c(c2)c(NC(=O)c2ccccc2C)nn3C)C(C#N)=C(C)N1 [BAY-974, N-[5-(3,5-dicyano-2,6-dimethyl-1,4-dihydropyridin-4-yl)-1-methylindazol-3-yl]-2-methylbenzamide]	no effect			
CCc1ccccc1C(=O)Nc1n[nH]c2c(C)c(F)c(C3C(C#N)=C(C)N(C)C(C)=C3C#N)cc12 [BAY-3827, N-[5-(3,5-dicyano-1,2,6-trimethyl-4H-pyridin-4-yl)-6-fluoro-7-methyl-1H-indazol-3-yl]-2-ethylbenzamide]		5	2.5	only significant under MK-8722–treated conditions at 5 μM
